From article PMC7083565, “In vitro metabolism, reaction phenotyping, enzyme kinetics, CYP inhibition and induction potential of ataluren” (Pharmacology Research & Perspectives, 2020)
Where two headings read alike, the source gives them in different places.

Assay: Ataluren glucuronidation kinetics, human intestinal microsomes
Assay type: in vitro ADME
Conditions: for CLint,u,UGT (scaled) / K m / K m, u / V max: HIM; for CLint,u,UGT (scaled): 20.6 mg protein/g tissue; for K m / K m, u / V max: mean ± SE; for K m / K m, u / V max / fraction unbound at 15 min: n = 3; for fraction unbound at 15 min / microsomal CLint: human, pH 7.5, HIM; for fraction unbound at 15 min: pooled human intestinal microsomes incubation mixture, mean ± SD, read-out: fu,inc; for microsomal CLint: pooled human intestinal microsomes, read-out: CLint,u,UGT
Experimental: Ataluren at 0.5, 2.5, 12.5, 25, 50, 100, 200, and 400 µmol/L, was incubated (n = 3) at 37°C with recombinant human UGT1A9 and with pooled microsomes from human liver, kidney, and intestine (0.025 mg protein/mL, preactivated with alamethicin at 20 µg/mL) in Tris‐HCl buffer (0.1 mol/L, pH 7.5), in the presence of 1 mmol/L EDTA, 5 mmol/L MgCl2, with or without 0.5%, 1%, or 2% BSA. The incubation (100 µL final volume with 0.5% DMSO) was started by adding an equal volume of UDPGA (5 mmol/L) in Tris‐HCl buffer (0.1 mol/L, pH 7.5). After 30 minutes incubation, the incubation mixtures were combined with 0.3 mL of an internal standard solution in acetonitrile with 1% formic acid, followed by membrane plate filtration. The filtrates were used for LC‐MS/MS analysis to quantify the formation of ataluren‐O‐1β‐acyl glucuronide. Detailed LC‐MS/MS conditions are summarized in LC‐MS/MS Analysis section. Ataluren acyl glucuronide formation rate after 30 minutes incubation was calculated using the amount of metabolite formed (pmol) divided by the protein amount in the incubation sample (0.0025 mg) and the incubation time (30 minutes). Ataluren glucuronidation kinetic parameters were determined with and without adjusting BSA binding by nonlinear regression (GraphPad Prism, 5version 5.04, GraphPad Software, Inc.) using Michaelis‐Menten equation which was the best fit compared with other models. The intrinsic clearance was calculated as CLint = Vmax/Km. In order to compare unbound intrinsic clearance by glucuronidation (CLint,u,UGT) in different tissues, CLint,u,UGT was expressed per gram of tissue by correcting the values for the microsomal protein yield, resulting in scaled CLint,u,UGT. Microsomal protein yields of 40.0, 12.8, and 20.6 mg protein/g tissue were used for hepatic, renal, and intestinal data, respectively. ^26
The high‐throughput membrane ultrafiltration method ^27 was used to determine the fraction unbound in the incubation (n = 3). Incubation mixtures and procedures were essentially the same as the above except that UDPGA (5 mmol/L) was replaced with Tris‐HCl buffer (0.1 mol/L, pH 7.5). After 15 minutes incubation, aliquot was transferred to a Millipore Multiscreen Ultracel‐10 filter plate (10 kDa molecular mass cut off; EMD Millipore). The plate was centrifuged at 37°C and 3710 g. After 30 minutes centrifugation, aliquots of ultrafiltrates and incubation mixtures prior to ultrafiltration were quenched with an internal standard solution in acetonitrile, followed by membrane plate filtration. The filtrates were used for LC‐MS/MS analysis to quantify the concentration of ataluren. The same LC‐MS/MS conditions described above are summarized in LC‐MS/MS Analysis section. The free fraction = Cu/Cm, where Cu is the concentration of ataluren in the ultrafiltrate and Cm is the concentration of ataluren in the incubation system before centrifugation. Unbound Km (Km, u) was recalculated by applying Michaelis‐Menten equation using free ataluren concentrations after correcting BSA binding at each ataluren and BSA concentration level.
Quantification of ataluren‐O‐1β‐acyl glucuronide formation was conducted on an Accela pump and a PAL autosampler equipped with a TSQ Quantum Ultra mass spectrometer (Thermo Fisher Scientific). A Waters Acquity BEH column (C18, 1.7 µm, 50 × 2.1 mm; Waters Cooperation) was used and maintained at 50°C. The mobile phases were 0.1% formic acid in water (A) and acetonitrile (B). The flow rate was 0.6 mL/min and gradient program was as follows: linear gradient from 0% B to 95% B in 0.5 minutes and hold isocratic at 95% B for 1 minute; linear gradient from 95% B to 0% B in 0.1 minutes and hold isocratic at 0% B for 0.4 minutes. TSQ Quantum Ultra mass spectrometer was equipped with a heated electrospray ionization source operated in negative‐ion mode with a vaporizer temperature of 350°C, capillary temperature of 380°C, and spray voltage of 3 kV. […]

With `O=C(O)c1cccc(-c2noc(-c3ccccc3F)n2)c1` [ataluren, Ataluren] the “CLint,u,UGT (scaled)” value (0% BSA) was 0.974 mL/min/g of tissue, the K m (0% BSA) was 15.8 ± 3.35 µM and the “K m, u” value (0% BSA) was 15.8 ± 3.10 µM. For the same compound, the V max (0% BSA) was 747 ± 32.7 pmol/min/mg, the “CLint,u,UGT (scaled)” value (0.5% BSA) was 3.38 mL/min/g of tissue and the K m (0.5% BSA) was 43.8 ± 6.88 µM. The “K m, u” value (0.5% BSA) was 4.03 ± 0.646 µM, the V max (0.5% BSA) was 660 ± 28.3 pmol/min/mg and the “CLint,u,UGT (scaled)” value (1% BSA) was 3.64 mL/min/g of tissue. The K m (1% BSA) was 82.4 ± 11.3 µM, the “K m, u” value (1% BSA) was 4.02 ± 0.544 µM and the V max (1% BSA) was 711 ± 31.2 pmol/min/mg. For the same compound, the “CLint,u,UGT (scaled)” value (2% BSA) was 3.39 mL/min/g of tissue, the K m (2% BSA) was 145 ± 22.0 µM and the “K m, u” value (2% BSA) was 4.74 ± 0.835 µM. The V max (2% BSA) was 767 ± 54.6 pmol/min/mg, the “maximal effect of BSA on CLint,u (increase)” value (human intestine microsomes, with vs without BSA) was roughly 3.7 fold and the fraction unbound at 15 min (0% BSA) was 1 ± 0.137. For the same compound, the fraction unbound at 15 min (0.5% BSA) was 0.1 ± 0.0021, the fraction unbound at 15 min (1% BSA) was 0.056 ± 0.002 and the fraction unbound at 15 min (2% BSA) was 0.036 ± 0.002. For the same compound, the microsomal CLint (0% BSA) was 47.3 µL/min/mg, the microsomal CLint (0.5% BSA) was 164 µL/min/mg and the microsomal CLint (1% BSA) was 177 µL/min/mg. For the same compound, the microsomal CLint (2% BSA) was 164 µL/min/mg.
